Data published in patent publication US12227500B2, “Substituted pyrrolo[2,3-b]pyridines for suppressing toxic endoplasmic reticulum stress” (THE TRUSTEES OF COLUMBIA UNIVERSITY IN THE CITY OF NEW YORK, priority 2018, dated 2025).
Where two headings read alike, the source gives them in different places.

Tests used:
Assay in all cases: Radiolabeled ATP kinase assay, panel of 371 kinases (Table S6)
Format in all cases: biochemical
[1] = target: T1, panel of 371 human kinases (Homo sapiens, UniProt P11802); details: 0.1 μM, 10 μM ATP, read-out: % Enzyme Activity (relative to DMSO controls)
T1 construct: purchased Reaction Biology Corp
From the text: (§1) ; FIG. 38C). […]. Further targeted analyses, such as genetic knock-down or knock-out, may be warranted to parse the role of these additional kinases in our model of neurodegeneration.

[2] = target: T2, panel of 371 human kinases (Homo sapiens, UniProt P45983); details: JNK1; 0.1 μM; 10 μM ATP; read-out: % Enzyme Activity (relative to DMSO controls)
T2 construct: purchased Reaction Biology Corp
From the text: as §1

[3] = target: T3, panel of 371 human kinases (Homo sapiens, UniProt Q9HAZ1); details: CLK4; 0.1 μM; 10 μM ATP; read-out: % Enzyme Activity (relative to DMSO controls)
T3 construct: purchased Reaction Biology Corp
From the text: as §1

[4] = target: T4, panel of 371 human kinases (Homo sapiens, UniProt Q16620); details: TRKB; 0.1 μM; 10 μM ATP; read-out: % Enzyme Activity (relative to DMSO controls)
T4 construct: purchased Reaction Biology Corp
From the text: as §1

[5] = target: T5, panel of 371 human kinases (Homo sapiens, UniProt Q15418); details: RSK1; 0.1 μM; 10 μM ATP; read-out: % Enzyme Activity (relative to DMSO controls)
T5 construct: purchased Reaction Biology Corp
From the text: as §1

[6] = target: T6, panel of 371 human kinases (Homo sapiens, UniProt Q15208); details: STK38/NDR1; 0.1 μM; 10 μM ATP; read-out: % Enzyme Activity (relative to DMSO controls)
T6 construct: purchased Reaction Biology Corp
From the text: as §1

[7] = target: T7, panel of 371 human kinases (Homo sapiens, UniProt P49674); details: CK1epsilon; 0.1 μM; 10 μM ATP; read-out: % Enzyme Activity (relative to DMSO controls)
T7 construct: purchased Reaction Biology Corp
From the text: as §1

[8] = target: T8, panel of 371 human kinases (Homo sapiens, UniProt Q9H1R3); details: MLCK2/MYLK2; 0.1 μM; 10 μM ATP; read-out: % Enzyme Activity (relative to DMSO controls)
T8 construct: purchased Reaction Biology Corp
From the text: as §1

[9] = target: T9, panel of 371 human kinases (Homo sapiens, UniProt P42679); details: CTK/MATK; 0.1 μM; 10 μM ATP; read-out: % Enzyme Activity (relative to DMSO controls)
T9 construct: purchased Reaction Biology Corp
From the text: as §1

[10] = target: T10, panel of 371 human kinases (Homo sapiens, UniProt Q5TCX8); details: MLK4; 0.1 μM; 10 μM ATP; read-out: % Enzyme Activity (relative to DMSO controls)
T10 construct: purchased Reaction Biology Corp
From the text: as §1

[11] = target: T11, panel of 371 human kinases (Homo sapiens, UniProt P29597); details: TYK2; 0.1 μM; 10 μM ATP; read-out: % Enzyme Activity (relative to DMSO controls)
T11 construct: purchased Reaction Biology Corp
From the text: as §1

[12] = target: T12, panel of 371 human kinases (Homo sapiens, UniProt O95382); details: MEKK6; 0.1 μM; 10 μM ATP; read-out: % Enzyme Activity (relative to DMSO controls)
T12 construct: purchased Reaction Biology Corp
From the text: as §1

[13] = target: T13, panel of 371 human kinases (Homo sapiens, UniProt O95835); details: LATS1; 0.1 μM; 10 μM ATP; read-out: % Enzyme Activity (relative to DMSO controls)
T13 construct: purchased Reaction Biology Corp
From the text: as §1

[14] = target: T14, panel of 371 human kinases (Homo sapiens, UniProt P14616); details: IRR/INSRR; 0.1 μM; 10 μM ATP; read-out: % Enzyme Activity (relative to DMSO controls)
T14 construct: purchased Reaction Biology Corp
From the text: as §1

[15] = target: T15, panel of 371 human kinases (Homo sapiens, UniProt O00444); details: PLK4/SAK; 0.1 μM; 10 μM ATP; read-out: % Enzyme Activity (relative to DMSO controls)
T15 construct: purchased Reaction Biology Corp
From the text: as §1

[16] = target: T16, panel of 371 human kinases (Homo sapiens, UniProt P25098); details: GRK2; 0.1 μM; 10 μM ATP; read-out: % Enzyme Activity (relative to DMSO controls)
T16 construct: purchased Reaction Biology Corp
From the text: as §1

[17] = target: T17, panel of 371 human kinases (Homo sapiens, UniProt P49761); details: CLK3; 0.1 μM; 10 μM ATP; read-out: % Enzyme Activity (relative to DMSO controls)
T17 construct: purchased Reaction Biology Corp
From the text: as §1

[18] = target: T18, panel of 371 human kinases (Homo sapiens, UniProt Q96PF2); details: TSSK2; 0.1 μM; 10 μM ATP; read-out: % Enzyme Activity (relative to DMSO controls)
T18 construct: purchased Reaction Biology Corp
From the text: as §1

[19] = target: T19, panel of 371 human kinases (Homo sapiens, UniProt Q6DT37); details: DMPK2; 0.1 μM; 10 μM ATP; read-out: % Enzyme Activity (relative to DMSO controls)
T19 construct: purchased Reaction Biology Corp
From the text: as §1

[20] = target: T20, panel of 371 human kinases (Homo sapiens, UniProt P07949); details: RET; 0.1 μM; 10 μM ATP; read-out: % Enzyme Activity (relative to DMSO controls)
T20 construct: purchased Reaction Biology Corp
From the text: as §1

[21] = target: T21, panel of 371 human kinases (Homo sapiens, UniProt P43403); details: ZAP70; 0.1 μM; 10 μM ATP; read-out: % Enzyme Activity (relative to DMSO controls)
T21 construct: purchased Reaction Biology Corp
From the text: as §1

[22] = target: T22, panel of 371 human kinases (Homo sapiens, UniProt O15075); details: DCAMKL1; 0.1 μM; 10 μM ATP; read-out: % Enzyme Activity (relative to DMSO controls)
T22 construct: purchased Reaction Biology Corp
From the text: as §1

[23] = target: T23, panel of 371 human kinases (Homo sapiens, UniProt Q13470); details: TNK1; 0.1 μM; 10 μM ATP; read-out: % Enzyme Activity (relative to DMSO controls)
T23 construct: purchased Reaction Biology Corp
From the text: as §1

[24] = target: T24, panel of 371 human kinases (Homo sapiens, UniProt Q13237); details: PKG2/PRKG2; 0.1 μM; 10 μM ATP; read-out: % Enzyme Activity (relative to DMSO controls)
T24 construct: purchased Reaction Biology Corp
From the text: as §1

T1 sequence (P11802 whole entry): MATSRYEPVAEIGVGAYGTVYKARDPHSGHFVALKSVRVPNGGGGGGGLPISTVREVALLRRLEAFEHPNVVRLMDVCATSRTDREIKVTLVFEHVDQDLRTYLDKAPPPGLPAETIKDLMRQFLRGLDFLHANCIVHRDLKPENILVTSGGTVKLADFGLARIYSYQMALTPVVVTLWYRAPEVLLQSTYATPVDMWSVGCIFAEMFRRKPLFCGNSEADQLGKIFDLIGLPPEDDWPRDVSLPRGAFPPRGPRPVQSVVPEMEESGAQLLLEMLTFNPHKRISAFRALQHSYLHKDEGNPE
T9 sequence (P42679 whole entry): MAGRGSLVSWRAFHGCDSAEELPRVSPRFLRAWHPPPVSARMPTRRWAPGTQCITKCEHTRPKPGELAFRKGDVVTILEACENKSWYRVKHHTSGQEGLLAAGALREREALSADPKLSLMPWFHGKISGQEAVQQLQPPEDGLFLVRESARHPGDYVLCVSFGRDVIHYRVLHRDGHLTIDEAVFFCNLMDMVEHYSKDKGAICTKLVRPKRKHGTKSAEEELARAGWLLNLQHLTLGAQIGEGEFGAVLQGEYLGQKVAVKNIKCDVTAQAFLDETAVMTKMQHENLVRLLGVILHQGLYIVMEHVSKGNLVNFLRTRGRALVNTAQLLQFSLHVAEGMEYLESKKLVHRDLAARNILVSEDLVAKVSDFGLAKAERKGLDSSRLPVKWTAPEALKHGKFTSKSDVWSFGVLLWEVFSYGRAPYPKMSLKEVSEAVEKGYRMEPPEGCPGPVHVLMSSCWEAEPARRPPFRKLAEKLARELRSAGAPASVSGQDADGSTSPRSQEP
T24 sequence (Q13237 whole entry): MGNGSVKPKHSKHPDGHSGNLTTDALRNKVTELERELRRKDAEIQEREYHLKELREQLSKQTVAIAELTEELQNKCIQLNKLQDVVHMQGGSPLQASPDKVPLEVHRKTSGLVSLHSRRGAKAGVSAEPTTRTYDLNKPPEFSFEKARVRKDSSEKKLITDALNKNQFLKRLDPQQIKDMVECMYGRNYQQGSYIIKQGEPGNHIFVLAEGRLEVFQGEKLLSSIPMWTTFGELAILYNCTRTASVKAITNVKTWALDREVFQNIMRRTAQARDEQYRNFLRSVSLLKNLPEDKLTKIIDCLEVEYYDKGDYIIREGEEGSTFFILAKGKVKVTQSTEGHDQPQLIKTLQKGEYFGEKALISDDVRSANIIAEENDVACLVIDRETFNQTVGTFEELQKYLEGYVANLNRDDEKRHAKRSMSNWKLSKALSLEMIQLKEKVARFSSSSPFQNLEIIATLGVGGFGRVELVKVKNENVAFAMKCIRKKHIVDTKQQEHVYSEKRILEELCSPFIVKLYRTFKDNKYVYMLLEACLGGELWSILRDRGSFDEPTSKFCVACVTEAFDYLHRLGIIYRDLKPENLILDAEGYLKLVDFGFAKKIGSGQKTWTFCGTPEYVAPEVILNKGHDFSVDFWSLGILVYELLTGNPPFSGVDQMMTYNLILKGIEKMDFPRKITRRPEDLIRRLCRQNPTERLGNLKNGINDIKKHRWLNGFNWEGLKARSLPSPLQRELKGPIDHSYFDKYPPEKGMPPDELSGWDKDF
T22 sequence (O15075 whole entry): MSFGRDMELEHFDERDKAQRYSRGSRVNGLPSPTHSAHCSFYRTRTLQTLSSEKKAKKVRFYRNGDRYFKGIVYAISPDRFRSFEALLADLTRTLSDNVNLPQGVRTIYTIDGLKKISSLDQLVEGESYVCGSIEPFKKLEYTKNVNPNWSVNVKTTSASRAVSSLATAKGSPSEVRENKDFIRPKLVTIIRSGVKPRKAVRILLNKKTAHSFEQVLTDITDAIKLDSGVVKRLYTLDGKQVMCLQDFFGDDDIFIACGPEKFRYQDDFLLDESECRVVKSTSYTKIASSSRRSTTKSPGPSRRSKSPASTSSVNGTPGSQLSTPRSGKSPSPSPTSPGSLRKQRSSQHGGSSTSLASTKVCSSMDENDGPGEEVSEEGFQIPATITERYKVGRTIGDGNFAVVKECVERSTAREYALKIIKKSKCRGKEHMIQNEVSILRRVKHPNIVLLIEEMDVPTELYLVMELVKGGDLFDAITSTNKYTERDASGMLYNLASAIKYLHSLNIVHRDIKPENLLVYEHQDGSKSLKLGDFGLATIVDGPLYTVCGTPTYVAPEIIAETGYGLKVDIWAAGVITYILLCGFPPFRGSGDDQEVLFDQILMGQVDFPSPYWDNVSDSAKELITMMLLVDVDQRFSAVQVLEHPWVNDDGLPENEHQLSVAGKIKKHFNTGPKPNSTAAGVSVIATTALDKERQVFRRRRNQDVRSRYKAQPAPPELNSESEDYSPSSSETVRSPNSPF
T19 sequence (Q6DT37 whole entry): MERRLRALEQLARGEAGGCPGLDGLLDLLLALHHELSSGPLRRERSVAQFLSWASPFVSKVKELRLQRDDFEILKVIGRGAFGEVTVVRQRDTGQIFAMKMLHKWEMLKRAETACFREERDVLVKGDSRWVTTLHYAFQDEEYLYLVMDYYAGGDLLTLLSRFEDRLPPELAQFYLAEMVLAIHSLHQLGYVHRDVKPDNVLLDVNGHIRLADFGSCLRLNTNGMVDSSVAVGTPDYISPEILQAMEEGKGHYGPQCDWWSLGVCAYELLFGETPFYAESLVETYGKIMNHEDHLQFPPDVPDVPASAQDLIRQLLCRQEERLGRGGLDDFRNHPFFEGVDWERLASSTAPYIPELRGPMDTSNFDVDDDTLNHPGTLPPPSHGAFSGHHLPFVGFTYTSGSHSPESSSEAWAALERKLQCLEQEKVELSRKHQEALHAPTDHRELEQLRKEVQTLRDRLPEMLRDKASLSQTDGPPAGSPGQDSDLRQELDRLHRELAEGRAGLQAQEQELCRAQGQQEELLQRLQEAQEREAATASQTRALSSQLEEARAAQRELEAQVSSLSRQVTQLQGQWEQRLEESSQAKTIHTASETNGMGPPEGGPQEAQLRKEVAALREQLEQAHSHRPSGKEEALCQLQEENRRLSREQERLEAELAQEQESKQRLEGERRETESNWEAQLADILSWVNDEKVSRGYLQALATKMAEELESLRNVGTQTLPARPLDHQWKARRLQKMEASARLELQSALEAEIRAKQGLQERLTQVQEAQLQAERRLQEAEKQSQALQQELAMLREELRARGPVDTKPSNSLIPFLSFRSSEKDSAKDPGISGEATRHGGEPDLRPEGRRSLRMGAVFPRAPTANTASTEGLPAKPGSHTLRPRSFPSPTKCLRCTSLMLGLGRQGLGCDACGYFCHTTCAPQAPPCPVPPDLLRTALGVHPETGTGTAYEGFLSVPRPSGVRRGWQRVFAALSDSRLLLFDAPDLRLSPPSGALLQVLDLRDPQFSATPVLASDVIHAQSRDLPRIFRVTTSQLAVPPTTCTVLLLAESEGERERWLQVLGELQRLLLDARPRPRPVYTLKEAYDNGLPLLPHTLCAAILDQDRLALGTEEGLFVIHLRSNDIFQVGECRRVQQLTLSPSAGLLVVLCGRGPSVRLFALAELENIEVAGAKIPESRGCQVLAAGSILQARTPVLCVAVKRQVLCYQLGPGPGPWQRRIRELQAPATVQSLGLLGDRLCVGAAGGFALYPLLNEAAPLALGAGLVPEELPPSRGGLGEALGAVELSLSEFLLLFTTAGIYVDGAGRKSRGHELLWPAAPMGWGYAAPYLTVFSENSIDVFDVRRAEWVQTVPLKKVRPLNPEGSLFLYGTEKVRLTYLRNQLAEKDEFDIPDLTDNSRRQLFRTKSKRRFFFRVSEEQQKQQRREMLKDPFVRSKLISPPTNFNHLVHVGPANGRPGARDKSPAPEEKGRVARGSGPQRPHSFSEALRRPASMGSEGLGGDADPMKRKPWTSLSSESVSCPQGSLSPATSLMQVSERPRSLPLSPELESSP
T4 sequence (Q16620 32-822): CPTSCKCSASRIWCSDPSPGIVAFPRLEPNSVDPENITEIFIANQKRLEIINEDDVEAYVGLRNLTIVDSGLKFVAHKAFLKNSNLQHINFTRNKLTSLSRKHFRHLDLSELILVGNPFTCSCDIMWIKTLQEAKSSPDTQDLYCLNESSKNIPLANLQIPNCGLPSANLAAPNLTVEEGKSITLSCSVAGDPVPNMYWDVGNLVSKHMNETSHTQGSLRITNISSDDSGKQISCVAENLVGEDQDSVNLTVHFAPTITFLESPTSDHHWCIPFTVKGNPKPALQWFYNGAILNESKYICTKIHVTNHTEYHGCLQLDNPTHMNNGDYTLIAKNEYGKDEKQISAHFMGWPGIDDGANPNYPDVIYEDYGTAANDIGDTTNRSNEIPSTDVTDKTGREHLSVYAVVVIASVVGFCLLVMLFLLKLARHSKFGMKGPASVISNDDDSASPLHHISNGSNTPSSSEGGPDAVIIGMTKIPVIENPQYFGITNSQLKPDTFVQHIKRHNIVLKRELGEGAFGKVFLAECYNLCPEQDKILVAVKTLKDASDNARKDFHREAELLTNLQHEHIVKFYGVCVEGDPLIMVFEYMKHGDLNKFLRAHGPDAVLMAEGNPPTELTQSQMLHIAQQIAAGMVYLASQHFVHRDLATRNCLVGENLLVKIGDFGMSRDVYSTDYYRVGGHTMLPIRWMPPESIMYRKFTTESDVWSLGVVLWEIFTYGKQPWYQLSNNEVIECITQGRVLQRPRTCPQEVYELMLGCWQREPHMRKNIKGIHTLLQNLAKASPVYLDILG
T7 sequence (P49674 whole entry): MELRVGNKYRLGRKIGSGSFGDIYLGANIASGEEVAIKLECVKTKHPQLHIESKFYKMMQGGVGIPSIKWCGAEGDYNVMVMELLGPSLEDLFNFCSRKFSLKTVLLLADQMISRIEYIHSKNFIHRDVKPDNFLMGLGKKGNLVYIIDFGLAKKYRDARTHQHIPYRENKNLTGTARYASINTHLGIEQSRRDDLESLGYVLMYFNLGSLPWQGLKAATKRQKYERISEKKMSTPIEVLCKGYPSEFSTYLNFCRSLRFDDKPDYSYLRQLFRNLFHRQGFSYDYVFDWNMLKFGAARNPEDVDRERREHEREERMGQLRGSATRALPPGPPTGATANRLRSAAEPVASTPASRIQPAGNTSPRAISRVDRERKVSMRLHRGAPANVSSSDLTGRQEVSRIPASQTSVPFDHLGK

Compound	remaining activity at 0.1 µM ([1]; CDK4/cyclin D1) [%]	remaining activity at 0.1 µM ([1]; CDK4/cyclin D3) [%]	remaining activity at 0.1 µM [2] [%]	remaining activity at 0.1 µM [3] [%]	remaining activity at 0.1 µM [4] [%]	remaining activity at 0.1 µM [5] [%]	remaining activity at 0.1 µM [6] [%]	remaining activity at 0.1 µM [7] [%]	remaining activity at 0.1 µM [8] [%]	remaining activity at 0.1 µM [9] [%]	remaining activity at 0.1 µM [10] [%]	remaining activity at 0.1 µM [11] [%]	remaining activity at 0.1 µM [12] [%]	remaining activity at 0.1 µM [13] [%]	remaining activity at 0.1 µM [14] [%]	remaining activity at 0.1 µM [15] [%]	remaining activity at 0.1 µM [16] [%]	remaining activity at 0.1 µM [17] [%]	remaining activity at 0.1 µM [18] [%]	remaining activity at 0.1 µM [19] [%]	further results
CN1CCN(Cc2ccc(-c3cnc4[nH]cc(-c5ccc6[nH]ccc6c5)c4c3)cc2)CC1 [Compound 1, 3-(1H-Indol-5-yl)-5-(4-((4-methylpiperazin-1-yl)methyl)phenyl)-1H-pyrrolo[2,3-b]pyridine, reference compound]	69.2	90.9	98.2	94.5	59.3	85.4	88.1	117	66	102	99.9	90.8	91.6	83.6	50.1	97	94	95.3	115	76.8	remaining activity at 0.1 µM [20]: 76.7%; remaining activity at 0.1 µM [21]: 103%; remaining activity at 0.1 µM [22]: 97.2%; remaining activity at 0.1 µM [23]: 97%; remaining activity at 0.1 µM [24]: 93.8%
OCCN1CCN(Cc2ccc(-c3cnc4[nH]cc(-c5cccc(Cl)c5)c4c3)cc2)CC1 [Compound 12k, 2-(4-(4-(3-(3-Chlorophenyl)-1H-pyrrolo[2,3-b]pyridin-5-yl)benzyl)piperazin-1-yl)ethan-1-ol]	56.4	67.2	86.8	71.9	77.4	90	71.9	103	78.9	96.5	108	92.9	95	84.4	89.9	93.4	96.3	91	108	61.3	remaining activity at 0.1 µM [20]: 91.5%; remaining activity at 0.1 µM [21]: 102%; remaining activity at 0.1 µM [22]: 94.2%; remaining activity at 0.1 µM [23]: 95.6%; remaining activity at 0.1 µM [24]: 88.7%
